Measured values as given in ChEMBL document CHEMBL1201862, “PubChem BioAssay data set” (2004).
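Exposure lasted 48 hours, with cells grown in 96-well plates and compounds tested at five concentrations. Abbreviation: GI50, concentration required for 50% inhibition of growth.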 Calls of active or inactive are those of the source. Rule as the data show it: active = GI50 up to about 1.1 µM and inactive = higher.

Key:
Assay in all cases: growth of human tumour cells (NCI), 48 h
ACHN = tested on: ACHN
CAKI-1 = tested on: CAKI-1
HCT-116 = tested on: HCT-116
HL-60 = tested on: HL-60
HOP-92 = tested on: HOP-92
HT-29 = tested on: HT-29
KM12 = tested on: KM12
M14 = tested on: M14
Malme-3M = tested on: Malme-3M
NCI-H226 = tested on: NCI-H226
NCI-H460 = tested on: NCI-H460
NCI-H522 = tested on: NCI-H522
NCI/ADR-RES = tested on: NCI/ADR-RES
OVCAR-5 = tested on: OVCAR-5
SF-539 = tested on: SF-539
SK-MEL-28 = tested on: SK-MEL-28
SN12C = tested on: SN12C
T47D = tested on: T47D
TK-10 = tested on: TK-10
UACC-62 = tested on: UACC-62

| Compound | GI50 (ACHN) | GI50 (CAKI-1) | GI50 (HCT-116) | GI50 (HL-60) | GI50 (HOP-92) | GI50 (HT-29) | GI50 (KM12) | GI50 (M14) | GI50 (Malme-3M) | GI50 (NCI-H226) | GI50 (NCI-H460) | GI50 (NCI-H522) | GI50 (NCI/ADR-RES) | GI50 (OVCAR-5) | GI50 (SF-539) | GI50 (SK-MEL-28) | GI50 (SN12C) | GI50 (T47D) | GI50 (TK-10) | GI50 (UACC-62) |
| --- | --- | --- | --- | --- | --- | --- | --- | --- | --- | --- | --- | --- | --- | --- | --- | --- | --- | --- | --- | --- |
| O=C(c1cc2ccccc2[nH]1)N1C2CCC1CN(CCOC(c1ccc(F)cc1)c1ccc(F)cc1)CC2 (stereo not given) | 95.1 µM (inactive) | 6.81 µM (inactive) | 5.09 µM (inactive) | 6.85 µM (inactive) | > 100 µM (inactive) | 23.8 µM (inactive) | 60.3 µM (inactive) | > 100 µM (inactive) | > 100 µM (inactive) | 6.9 µM (inactive) | 4.48 µM (inactive) | 18.1 µM (inactive) | > 100 µM (inactive) | > 100 µM (inactive) | 19.1 µM (inactive) | > 100 µM (inactive) | 18.2 µM (inactive) | 5.28 µM (inactive) | > 100 µM (inactive) | 52 µM (inactive) |
| N#CC1CCN2N=C(c3ccccc3)SC12c1ccccc1 (stereo not given) | 21.1 µM (inactive) | 35.4 µM (inactive) | 35.2 µM (inactive) | 32.9 µM (inactive) | 58.1 µM (inactive) | 32.1 µM (inactive) | 48.6 µM (inactive) | 45.6 µM (inactive) | > 100 µM (inactive) | 58.1 µM (inactive) | 26.1 µM (inactive) | 46.2 µM (inactive) | 32.9 µM (inactive) | > 100 µM (inactive) | 78.2 µM (inactive) | > 100 µM (inactive) | 40.4 µM (inactive) | 24.5 µM (inactive) | > 100 µM (inactive) | 4.91 µM (inactive) |
| C/C(=N/NC(=S)Nc1ccc(C)cc1)c1ccccn1 | 0.0515 µM (active) | 0.0968 µM (active) | < 0.0146 µM (active) | < 0.0132 µM (active) | 0.719 µM (active) | < 0.0366 µM (active) | 0.122 µM (active) | 0.0446 µM (active) | 0.505 µM (active) | 0.0908 µM (active) | 0.263 µM (active) | 0.12 µM (active) | < 0.0152 µM (active) | 0.0493 µM (active) | 0.815 µM (active) | 2.1 µM (inactive) | 0.192 µM (active) | 0.049 µM (active) | 0.19 µM (active) | 0.105 µM (active) |
| COc1ccc(NC(C)=O)cc1N1C(=O)/C(=C\c2cccc(Oc3ccccc3)c2)S(=O)(=O)C1c1ccccc1 (stereo not given) | 39.4 µM (inactive) | 16.6 µM (inactive) | 17.4 µM (inactive) | 20.4 µM (inactive) | 25 µM (inactive) | 18.7 µM (inactive) | 59.2 µM (inactive) | 30.1 µM (inactive) | 70.1 µM (inactive) | > 100 µM (inactive) | 74.1 µM (inactive) | 41.1 µM (inactive) | 27.9 µM (inactive) | > 100 µM (inactive) | 20.7 µM (inactive) | 43.1 µM (inactive) | 24.2 µM (inactive) | 18.5 µM (inactive) | > 100 µM (inactive) | 58.7 µM (inactive) |
| CC(C)C1CC(CO)(CNc2nc(N)nc(Cl)c2C=O)C1 (stereo not given) | 5.35 µM (inactive) | 2.17 µM (inactive) | 2.84 µM (inactive) | 1.57 µM (inactive) | 2.28 µM (inactive) | 2.48 µM (inactive) | 7.35 µM (inactive) | 1.77 µM (inactive) | 11.1 µM (inactive) | 8.95 µM (inactive) | 8.22 µM (inactive) | 0.604 µM (active) | 6.03 µM (inactive) | 17.1 µM (inactive) | 13.7 µM (inactive) | 1.88 µM (inactive) | 3.75 µM (inactive) | 6.01 µM (inactive) | > 66.8 µM (inactive) | 2 µM (inactive) |
| OC(/C(=N/c1ccccc1)c1ccccc1)c1ccccc1 (stereo not given) | 14.4 µM (inactive) | 11.9 µM (inactive) | 5.37 µM (inactive) | 2.94 µM (inactive) | 4.05 µM (inactive) | 5.22 µM (inactive) | 2.72 µM (inactive) | 4.8 µM (inactive) | 2.22 µM (inactive) | 10.8 µM (inactive) | 6.5 µM (inactive) | 4.35 µM (inactive) | 23.5 µM (inactive) | 23.1 µM (inactive) | 11.3 µM (inactive) | 2.66 µM (inactive) | 10.7 µM (inactive) | 5.62 µM (inactive) | 2.72 µM (inactive) | 3.57 µM (inactive) |
| c1cc2nnc1SCCSCCSc1ccc(nn1)SCCSCCS2 | > 100 µM (inactive) | > 100 µM (inactive) | > 100 µM (inactive) | > 100 µM (inactive) | > 100 µM (inactive) | > 100 µM (inactive) | > 100 µM (inactive) | > 100 µM (inactive) | > 100 µM (inactive) | > 100 µM (inactive) | > 100 µM (inactive) | > 100 µM (inactive) | > 100 µM (inactive) | > 100 µM (inactive) | 25.4 µM (inactive) | > 100 µM (inactive) | > 100 µM (inactive) | > 100 µM (inactive) | > 100 µM (inactive) | > 100 µM (inactive) |
